According to patent US20050202549A1, “Crystal structure” (Pfizer Inc, priority 2001, published 2005):

Assays:
[1] = molecular target: T1, PDE5* (loop-swapped PDE5 catalytic domain) (Homo sapiens, UniProt O76074, C677D/E669N/H670S/H678E/I665L/I680V/INS676N/L675M/M681L/N661S/P671E/Q666I/Q674L/R658P/R667N/S663Q/S668T/Y664F); assay: Soaking of inhibitor into C2 crystal form of PDE5* and X-ray structure determination; assay type: binding
T1 construct: Construction and Expression of PDE5* (E534-E858) in E. coli; made in house; host or cells: E. coli BL21 (DE3), pET21C
Method: Plate-shaped crystals of apo PDE5* obtained according to methods detailed in EXAMPLE 6 were transferred to a 20 μl drop of 0.1M sodium HEPES and 20% Polyethylene glycol 4000 in square microbridges. To this, 1.0 μl of a 20 mg/ml concentration of inhibitor dissolved in DMSO was added. Crystals were then transferred to a solution of 0.1M sodium HEPES pH 7.4, 20% Polyethylene glycol 4000 with 15% glycerol and then frozen during X-ray data collection.
X-ray diffraction data were collected with an RaxisIV image plate detector on an in-house FR-D rotating anode (Rigaku), with Osmic mirrors (MSC). All data were processed using the HKL package (Otwinowski & Minor, 1997).
Refinement was carried out in the resolution range 30-1.5 Å using CNX (Brünger et al., 1998) with the “mlf” maximum likelihood target function. Partial structure factors from a flat bulk-solvent model and anisotropic B-factor correction were supplied throughout the refinement.

[2] = molecular target: T2, wild-type PDE5 catalytic domain (Homo sapiens, UniProt O76074); assay: X-ray structure of wild-type PDE5 catalytic domain complexed with Sildenafil; conditions: X-ray structure of wild-type PDE5 complex; binding in the active site, blocking access for the cGMP substrate
T2 construct: Construction and Expression of PDE5 Wild-type Catalytic Domain (E534-N875); made in house; host or cells: baculovirus / insect cells (pFastbac1; Sf-9 for virus stocks, T.ni High5 named for expression)

**Q.** CCCc1nn(C)c2c(=O)[nH]c(-c3ccccc3OCC)nc12 [UK-088,800, 5-(2-ethoxyphenyl)-1-methyl-3-propyl-1,6-dihydro-7H-pyrazolo[4,3-d]pyrimidin-7-one] was tested. Which “(fo-fc) electron density map at the active site region” value ([1]; PDE5* C2 crystal soaked with ligand, map contoured at 2.5σ, phases prior to incorporation of ligand) did it give?
**A.** clearly featured peak

**Q.** And the mode of inhibition ([1]; X-ray structure of PDE5* complex, binding in the active site, blocking access for the cGMP substrate)?
**A.** competitive

**Q.** For CCCc1nn(C)c2c(=O)[nH]c(-c3cc(S(=O)(=O)N4CCN(C)CC4)ccc3OCC)nc12 [Sildenafil, 5-[2-ethoxy-5-(4-methyl-1-piperazinylsulphonyl)phenyl]-1-methyl-3-n-propyl-1,6-dihydro-7H-pyrazolo[4,3-d]pyrimidin-7-one], which mode of inhibition [2] is on record?
**A.** competitive
